# Measurements taken from ChEMBL document CHEMBL1201862, “PubChem BioAssay data set” (2004).
# The source made the active and inactive calls.
# Legend:
# [1] = OVCAR8 cell viability loss – plate reader, dry powder samples, PAX8 project, dose response (AID 743197); assay type: functional, cell-based; settings: OVCAR-8
# [2] = molecular target: Paired box protein Pax-8 (Homo sapiens, UniProt Q06710); assay: PAX8 transcriptional activity inhibition in RMG-I – RMG-I cells, luciferase, cherry-pick, dose response (AID 687027); assay type: functional, cell-based;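 note: luciferase reporter driven by Pax8 target thyroperoxidase promoter measured by SteadyGlo luminescence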
# Sequence of Paired box protein Pax-8 (Q06710 whole entry): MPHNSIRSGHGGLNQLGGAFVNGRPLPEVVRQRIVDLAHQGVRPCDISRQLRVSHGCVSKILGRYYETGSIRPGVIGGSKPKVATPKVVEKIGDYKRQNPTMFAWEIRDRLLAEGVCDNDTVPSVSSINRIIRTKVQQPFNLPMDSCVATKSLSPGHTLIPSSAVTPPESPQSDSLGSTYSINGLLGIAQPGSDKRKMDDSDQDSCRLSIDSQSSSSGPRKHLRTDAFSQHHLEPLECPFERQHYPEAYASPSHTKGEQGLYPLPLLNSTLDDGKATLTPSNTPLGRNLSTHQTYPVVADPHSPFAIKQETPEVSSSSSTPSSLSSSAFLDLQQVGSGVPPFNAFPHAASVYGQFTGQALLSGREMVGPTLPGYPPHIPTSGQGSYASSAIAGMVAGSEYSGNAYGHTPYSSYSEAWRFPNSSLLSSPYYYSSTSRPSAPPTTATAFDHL
# [3] = molecular target: T1, Orexin/Hypocretin receptor type 1 (Homo sapiens, UniProt O43613); assay: Fluorescence-based cell-based high throughput dose response assay for antagonists of the orexin 1 receptor (OX1R; HCRTR1). [Related pubchem assays (depositor defined):AID434989, AID435008, AID463079, AID485270, AID492963, AID492964, AID492965, AID493232, AID504717, AID504718]; assay type: functional
# T1 sequence (O43613 whole entry): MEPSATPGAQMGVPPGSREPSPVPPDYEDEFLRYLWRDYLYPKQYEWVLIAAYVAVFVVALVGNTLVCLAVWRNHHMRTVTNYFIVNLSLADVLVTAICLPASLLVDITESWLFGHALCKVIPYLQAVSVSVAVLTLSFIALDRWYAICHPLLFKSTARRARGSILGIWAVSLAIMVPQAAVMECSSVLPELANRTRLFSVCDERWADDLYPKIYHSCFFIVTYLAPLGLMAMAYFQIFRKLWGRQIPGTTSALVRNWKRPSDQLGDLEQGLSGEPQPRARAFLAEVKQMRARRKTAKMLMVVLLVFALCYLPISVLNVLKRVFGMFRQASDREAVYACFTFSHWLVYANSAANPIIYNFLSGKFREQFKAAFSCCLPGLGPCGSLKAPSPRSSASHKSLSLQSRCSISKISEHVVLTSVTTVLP
# [4] = molecular target: T1, Orexin/Hypocretin receptor type 1; assay: Homogeneous Time Resolved Fluorescence (HTRF)-based cell-based high throughput dose response assay for antagonists of the orexin 1 receptor (OX1R; HCRTR1). [Related pubchem assays (depositor defined):AID434989, AID435008, AID463079, AID485270, AID492963, AID492964, AID492965, AID493232, AID504717, AID504718]; assay type: functional
# [5] = molecular target: T2, Orexin receptor type 2 (Homo sapiens, UniProt O43614); assay: Counterscreen assay for antagonists of the orexin 1 receptor (OX1R; HCRTR1): Homogeneous Time Resolved Fluorescence (HTRF)-based cell-based dose response assay for antagonists of the orexin 2 receptor (OX2R; HCRTR2), run by assay provider.; assay type: functional
# T2 sequence (O43614 whole entry): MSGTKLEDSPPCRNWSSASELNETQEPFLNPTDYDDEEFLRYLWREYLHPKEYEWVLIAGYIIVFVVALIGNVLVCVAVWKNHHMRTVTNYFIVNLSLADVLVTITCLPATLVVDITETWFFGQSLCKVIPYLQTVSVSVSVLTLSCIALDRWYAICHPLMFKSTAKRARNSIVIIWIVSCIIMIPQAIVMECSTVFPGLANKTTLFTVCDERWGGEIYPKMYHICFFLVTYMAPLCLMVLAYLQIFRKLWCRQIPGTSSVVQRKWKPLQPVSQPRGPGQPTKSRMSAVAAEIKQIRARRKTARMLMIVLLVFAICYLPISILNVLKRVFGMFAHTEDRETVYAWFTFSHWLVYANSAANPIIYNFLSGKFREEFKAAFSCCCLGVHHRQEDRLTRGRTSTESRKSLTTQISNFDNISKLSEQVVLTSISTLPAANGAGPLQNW
# [6] = Counterscreen for antagonists of the orexin 1 receptor (OX1R; HCRTR1): Fluorescence-based cell-based high throughput dose response assay to identify antagonists of the parental CHO cell line. [Related pubchem assays (depositor defined):AID434989, AID435008, AID463079, AID485270, AID492963, AID492964, AID492965, AID493232, AID504699, AID504701]; assay type: functional
# [7] = molecular target: T2, Orexin receptor type 2; assay: Counterscreen assay for antagonists of the orexin 1 receptor (OX1R; HCRTR1): Fluorescence-based cell-based dose response assay for antagonists of the orexin 2 receptor (OX2R; HCRTR2), run by assay provider.; assay type: functional
# [8] = system: CHO-K1; assay: Counterscreen for antagonists of the orexin 1 receptor (OX1R; HCRTR1): Homogeneous time resolved fluorescence (HTRF)-based cell-based dose response assay to identify antagonists of the parental CHO-K1 cell line. [Related pubchem assays (depositor defined):AID434989, AID435008, AID463079, AID485270, AID492963, AID492964, AID492965, AID493232, AID504699, AID504701]; assay type: functional; settings: Cricetulus griseus;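 note: potency for inhibition of ATP-stimulated IP1 production as antagonists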
# [9] = OVCAR-3 cell viability loss – plate reader, dry powder samples, PAX8 inhibitor project, dose response (AID 743044); assay type: functional, cell-based
# [10] = molecular target: T3, fMet-Leu-Phe receptor (Homo sapiens, UniProt P21462); assay: formyl peptide receptor binders – dose response (AID 519); assay type: functional
# T3 sequence (P21462 whole entry): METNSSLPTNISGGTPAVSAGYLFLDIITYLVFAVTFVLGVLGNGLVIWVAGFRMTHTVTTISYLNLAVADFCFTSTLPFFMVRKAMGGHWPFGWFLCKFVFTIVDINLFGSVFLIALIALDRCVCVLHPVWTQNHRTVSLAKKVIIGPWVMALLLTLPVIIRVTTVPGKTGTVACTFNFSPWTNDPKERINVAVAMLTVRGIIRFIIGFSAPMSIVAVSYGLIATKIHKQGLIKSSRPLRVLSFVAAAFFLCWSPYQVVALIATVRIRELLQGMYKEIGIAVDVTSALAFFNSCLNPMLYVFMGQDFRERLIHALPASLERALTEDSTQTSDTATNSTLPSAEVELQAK
# [11] = molecular target: T4, Nuclear receptor subfamily 0 group B member 1 (Homo sapiens, UniProt P51843); assay type: functional, cell-based;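 note: HEK293T cells transfected with SF-1 and DAX-1 plus StAR promoter luciferase reporter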
# T4 sequence (P51843 whole entry): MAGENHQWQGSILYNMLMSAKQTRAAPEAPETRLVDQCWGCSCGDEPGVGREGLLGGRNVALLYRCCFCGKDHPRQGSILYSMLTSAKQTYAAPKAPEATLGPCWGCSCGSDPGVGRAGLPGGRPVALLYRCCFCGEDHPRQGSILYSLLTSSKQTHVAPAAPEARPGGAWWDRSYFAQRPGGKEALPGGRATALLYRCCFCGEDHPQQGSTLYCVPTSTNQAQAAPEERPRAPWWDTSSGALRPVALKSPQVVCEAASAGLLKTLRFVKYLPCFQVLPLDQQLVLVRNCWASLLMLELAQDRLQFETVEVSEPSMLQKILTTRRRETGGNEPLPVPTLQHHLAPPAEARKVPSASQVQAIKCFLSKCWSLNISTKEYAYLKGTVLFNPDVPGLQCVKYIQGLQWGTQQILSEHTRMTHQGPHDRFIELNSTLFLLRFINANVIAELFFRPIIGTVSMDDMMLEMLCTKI
# [12] = cells; assay type: functional, cell-based
# [13] = molecular target: Cytochrome P450 3A4 (Homo sapiens, UniProt P08684);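 note: CYP3A4 tested as one member of a cytochrome P450 panel screen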
# Sequence of Cytochrome P450 3A4 (P08684 whole entry): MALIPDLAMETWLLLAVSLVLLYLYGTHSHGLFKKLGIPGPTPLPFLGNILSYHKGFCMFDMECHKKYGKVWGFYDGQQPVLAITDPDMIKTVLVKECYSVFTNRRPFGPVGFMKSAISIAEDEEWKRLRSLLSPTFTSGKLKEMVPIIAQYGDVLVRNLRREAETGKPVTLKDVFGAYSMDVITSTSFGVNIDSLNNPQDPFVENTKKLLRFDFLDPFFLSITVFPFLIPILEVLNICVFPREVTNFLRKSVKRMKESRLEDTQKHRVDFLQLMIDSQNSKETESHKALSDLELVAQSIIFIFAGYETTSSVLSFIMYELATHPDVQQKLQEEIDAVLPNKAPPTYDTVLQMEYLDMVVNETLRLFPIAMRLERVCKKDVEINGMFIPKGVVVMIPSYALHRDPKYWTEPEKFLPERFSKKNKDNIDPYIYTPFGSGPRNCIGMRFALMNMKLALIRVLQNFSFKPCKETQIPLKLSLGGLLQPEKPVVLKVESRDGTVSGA
# [14] = system: H4; assay: Luminescence Cell-Based Dose Response HTS to Identify Activators of 5'UTR Stem-Loop Driven Prion Protein mRNA Translation in H4 Neuroglioblastoma Cells. [Related pubchem assays: 1829 (Project Summary), 1814 (Primary HTS)]; assay type: functional; settings: Homo sapiens
# [15] = cells; assay type: functional
# [16] = Fluorescence-based cell-based high throughput dose response assay for inhibitors of the interaction of nucleotide-binding oligomerization domain containing 2 (NOD2) and the receptor-interacting serine-threonine kinase 2 (RIPK2).; assay type: functional; settings: Homo sapiens
# [17] = loss of viability in HepG2 cells – cell-based, CellTiter-Glo, cherry-picked, cytotoxicity control for Shn3 inhibitor project, dose response (AID 624134); assay type: functional
# [18] = reduction of Shn3 3'UTR-driven luciferase in osteoblasts – cell-based, Clone20 osteoblasts, firefly luciferase, cherry-picked, dose response (AID 624132); assay type: functional;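 note: firefly luciferase luminescence from reporter carrying the Shn3 3'UTR in osteoblasts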
# [19] = Luminescence Cell-Based Dose Retest to Confirm Inhibitors of Cancer Stem Cells. [Related pubchem assays (depositor defined):AID2717, AID2721]; assay type: functional; settings: Homo sapiens
# [20] = non-specific 3'UTR reporter inhibition in Clone20-Shn3RL – cell-based, Renilla luciferase, cherry-picked, counter-screen for Shn3 inhibitor project, dose response (AID 624133); assay type: functional
# [21] = molecular target: T5, DNA repair protein RAD52 homolog (Homo sapiens, UniProt P43351); assay type: functional, biochemical
# T5 sequence (P43351 whole entry): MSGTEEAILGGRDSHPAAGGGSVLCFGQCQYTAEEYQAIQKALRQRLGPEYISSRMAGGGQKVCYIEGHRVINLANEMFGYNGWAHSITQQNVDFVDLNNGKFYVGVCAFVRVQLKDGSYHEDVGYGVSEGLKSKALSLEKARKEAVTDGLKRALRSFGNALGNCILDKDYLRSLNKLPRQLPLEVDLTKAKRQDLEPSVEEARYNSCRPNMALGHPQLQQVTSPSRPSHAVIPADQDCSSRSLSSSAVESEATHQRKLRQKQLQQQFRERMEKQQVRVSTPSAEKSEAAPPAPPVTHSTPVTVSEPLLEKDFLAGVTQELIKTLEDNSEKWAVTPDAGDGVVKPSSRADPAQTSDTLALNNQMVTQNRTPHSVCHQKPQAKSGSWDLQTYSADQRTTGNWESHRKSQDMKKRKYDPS
compound,measurement,setting,value
N#Cc1cccc(-c2ccc3c(c2)[C@@H]2[C@@H](CCN2C(=O)C2CCCCC2)[C@@H](CO)N3)c1,AC50,[1],61.9 µM (active)
same,AC50,[2],17.8 µM (active)
COc1ccccc1C(=O)Nc1nc2cc3c(cc2s1)OCCO3,IC50,[3],6.51 µM (active)
same,IC50,[4],1.95 µM (active)
same,IC50,[5],> 50 µM (inactive)
same,IC50,[6],> 49.8 µM (inactive)
same,IC50,[7],> 88.8 µM (inactive)
same,IC50,[8],> 66.2 µM (inactive)
C[C@@H]1CCCCO[C@H](CN(C)Cc2ccc(Cl)c(Cl)c2)[C@H](C)CN([C@@H](C)CO)C(=O)c2cc(NC(=O)Nc3ccc(C(F)(F)F)cc3)ccc2O1,AC50,[9],20.1 µM (active)
same,AC50,[1],51.1 µM (active)
same,AC50,[2],5.49 µM (active)
CCOc1cc(C2C(C(=O)c3ccc(C)o3)=C(O)C(=O)N2CCc2ccccc2)ccc1O (configuration not stated),Ki,[10],30.4 µM (inactive)
CCC1(O)CC2CN(CCc3c([nH]c4ccccc34)C(C(=O)OC)(c3cc4c(cc3OC)N(C=O)C3C(O)(C(=O)OC)C(OC(C)=O)C5(CC)C=CCN6CCC43C65)C2)C1 (configuration not stated),IC50,[11],0.386 µM (active)
same,IC50,[12],> 67.5 µM (inactive)
Cc1nc2c(C#N)c(C)nn2c(O)c1Cc1ccccc1,Ki,[10],50 µM (inactive)
same,AC50,[13],25.1 µM (inconclusive)
COc1ccc(C2C(C(=O)c3ccco3)=C(O)C(=O)N2Cc2cccnc2)cc1OC (configuration not stated),Ki,[10],> 66.7 µM (inactive)
CNc1nnc(SCC(=O)c2cc(C)n(C3CC3)c2C)s1,IC50,[11],> 67.5 µM (inactive)
same,IC50,[12],> 67.5 µM (inactive)
Nc1nc(-c2sc3nc4c(cc3c2N)CCCC4)nc(N2CCOCC2)n1,IC50,[3],5.52 µM (active)
same,EC50,[14],> 120 µM (not active)
same,IC50,[4],0.797 µM (active)
same,IC50,[5],> 50 µM (inactive)
same,IC50,[6],> 49.8 µM (inactive)
same,IC50,[7],> 88.8 µM (inactive)
same,IC50,[8],> 66.2 µM (inactive)
Cc1cc(C(=O)NCc2cccc(Cl)c2)c2ccccc2n1,IC50,[3],12.6 µM (inactive)
same,IC50,[4],0.976 µM (active)
same,IC50,[5],7.59 µM (active)
same,IC50,[6],> 49.7 µM (inactive)
same,IC50,[7],> 88.8 µM (inactive)
same,IC50,[8],> 66.2 µM (inactive)
CCOC(=O)c1c(C)nc2c3ccccc3ccn12,IC50,[3],32.9 µM (inactive)
same,IC50,[4],3.62 µM (active)
same,IC50,[15],37.3 µM (active)
same,IC50,[5],30 µM (inactive)
same,IC50,[6],> 49.8 µM (inactive)
same,IC50,[7],> 88.8 µM (inactive)
same,IC50,[8],> 66.3 µM (inactive)
O=[N+]([O-])/C=C/c1cn(Cc2ccc(Cl)cc2)c2ccccc12,IC50,[16],6.98 µM (active)
same,AC50,[17],5.81 µM (active)
same,AC50,[18],8.32 µM (active)
same,AC50,[19],1.88 µM (active)
same,AC50,[20],21.2 µM (active)
CCOC(=O)c1c(C)n(-c2ccc(C)cc2)c2ccc(OCC(O)CN3CCN(C)CC3)cc12 (configuration not stated),AC50,[21],6.54 µM (active)
CN(CCC#N)c1ccc(/C=C(\C#N)c2ccccn2)cc1,IC50,[11],> 0.834 µM (active)
same,IC50,[12],> 67.5 µM (inactive)
